The source made the active and inactive calls. The rule behind the calls is not given here.
How the values were obtained:
[1] = target: T1, von Hippel-Lindau disease tumor suppressor/Polymerase acidic protein (Influenza A virus (A/Puerto Rico/8/1934(H1N1))) (UniProt P03433+P40337); test: PROTAC activity at Influenza A virus A/WSN/33(H1N1) flag tagged Polymerase acidic protein/VHL (unknown origin) expressed in HEK293T cells assessed as degradation of PA expression at 5 uM incubated for 24 hrs by Western blotting analysis; assay type: cell-based
[2] = Cytotoxicity against human HEK293T cells assessed as reduction in cell viability incubated for 48 hrs by CCK-8 assay; assay type: toxicity, cell-based, HEK-293T
[3] = target: T1, von Hippel-Lindau disease tumor suppressor/Polymerase acidic protein (Influenza A virus (A/Puerto Rico/8/1934(H1N1))); test: PROTAC activity at Influenza A virus A/WSN/33(H1N1) flag tagged Polymerase acidic protein/VHL (unknown origin) expressed in HEK293T cells assessed as degradation of PA expression at 5 uM incubated for 24 hrs in presence of proteasome inhibitor MG-132 by Western blotting analysis; assay type: cell-based
[4] = target: T2, von Hippel-Lindau disease tumor suppressor/Polymerase basic protein 1 (Influenza A virus (strain A/Puerto Rico/8/1934 H1N1)) (UniProt P03431+P40337); test: PROTAC activity at Influenza A virus A/WSN/33(H1N1) flag tagged Polymerase basic protein 1/VHL (unknown origin) expressed in HEK293T cells assessed as degradation of PB1 expression at 10 ug/ml incubated for 24 hrs by Western blotting analysis; assay type: cell-based; settings: dose 10.0 µg/ml
T2 sequence (P03431 whole entry, looked up): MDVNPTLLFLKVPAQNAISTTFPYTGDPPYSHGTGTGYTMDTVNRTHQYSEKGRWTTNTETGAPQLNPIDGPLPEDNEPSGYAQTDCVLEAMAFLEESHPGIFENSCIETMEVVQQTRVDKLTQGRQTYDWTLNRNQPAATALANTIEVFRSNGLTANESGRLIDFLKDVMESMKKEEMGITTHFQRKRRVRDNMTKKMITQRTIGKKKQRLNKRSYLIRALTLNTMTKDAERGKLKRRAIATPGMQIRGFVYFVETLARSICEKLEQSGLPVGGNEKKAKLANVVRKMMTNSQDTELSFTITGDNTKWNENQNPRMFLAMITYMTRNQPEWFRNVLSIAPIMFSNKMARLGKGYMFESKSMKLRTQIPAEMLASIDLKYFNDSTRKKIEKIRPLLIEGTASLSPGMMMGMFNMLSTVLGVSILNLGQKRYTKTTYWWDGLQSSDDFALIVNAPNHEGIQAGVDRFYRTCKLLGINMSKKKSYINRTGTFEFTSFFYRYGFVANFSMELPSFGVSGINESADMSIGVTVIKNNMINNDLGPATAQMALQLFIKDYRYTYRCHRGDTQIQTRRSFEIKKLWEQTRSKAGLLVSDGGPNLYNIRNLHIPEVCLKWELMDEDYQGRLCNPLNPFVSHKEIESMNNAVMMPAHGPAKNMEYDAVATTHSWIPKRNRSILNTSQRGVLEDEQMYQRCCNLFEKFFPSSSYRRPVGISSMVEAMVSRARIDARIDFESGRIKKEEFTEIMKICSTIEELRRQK
T2 sequence (P40337 whole entry, looked up): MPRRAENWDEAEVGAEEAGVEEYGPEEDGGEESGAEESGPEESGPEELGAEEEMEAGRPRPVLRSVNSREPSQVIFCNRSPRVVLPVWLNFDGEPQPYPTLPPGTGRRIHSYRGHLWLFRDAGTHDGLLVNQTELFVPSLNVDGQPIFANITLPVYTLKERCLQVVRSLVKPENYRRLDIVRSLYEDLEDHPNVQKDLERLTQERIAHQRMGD

[5] = Half life in mouse liver microsomes preincubated for 5 mins followed by NADPH addition and measured for 45 mins by LC-MS analysis; assay type: ADME, Microsome; settings: time 50 min
[6] = system: enterovirus D68; test: Antiviral activity against enterovirus D68 infected in RD cells assessed as inhibition of viral replication incubated for 24 hrs by CCK-8 assay; assay type: functional, organism-based
[7] = target: T1, von Hippel-Lindau disease tumor suppressor/Polymerase acidic protein (Influenza A virus (A/Puerto Rico/8/1934(H1N1))); test: PROTAC activity at Influenza A virus A/WSN/33(H1N1) flag tagged Polymerase acidic protein/VHL (unknown origin) expressed in HEK293T cells assessed as degradation of PA expression at 5 uM incubated for 24 hrs in presence of chloroquine by Western blotting analysis; assay type: cell-based
[8] = system: Influenza B virus; test: Anti-influenza activity against Influenza B virus Yamagata/16/88 infected in HEK293T cells assessed as reduction in virus-induced cytopathic effect incubated for 48 hrs by CCK-8 assay; assay type: functional, organism-based; settings: Yamagata/16/88, HEK-293T
[9] = Half life in human plasma by LC-MS/MS analysis; assay type: ADME, cell-free
[10] = system: Enterovirus; test: Antiviral activity against Enterovirus CV-B1 infected in RD cells assessed as inhibition of viral replication incubated for 24 hrs by CCK-8 assay; assay type: functional, organism-based
[11] = target: T1, von Hippel-Lindau disease tumor suppressor/Polymerase acidic protein (Influenza A virus (A/Puerto Rico/8/1934(H1N1))); test: PROTAC activity at Influenza A virus A/WSN/33(H1N1) flag tagged Polymerase acidic protein/VHL (unknown origin) expressed in HEK293T cells assessed as degradation of PA expression at 10 uM incubated for 24 hrs by Western blotting analysis; assay type: cell-based
[12] = Half life in human liver microsomes preincubated for 5 mins followed by NADPH addition and measured for 45 mins by LC-MS analysis; assay type: ADME, Microsome; settings: time 50 min
[13] = system: Influenza A virus; test: Anti-influenza activity against Influenza A virus A/WSN/33(H1N1) infected in MDCK cells assessed as downregulation of nucleoprotein expression at 100 nM incubated for 24 hrs by Western blotting analysis relative to control; assay type: functional
[14] = system: Enterovirus; test: Antiviral activity against Enterovirus CV-A16 infected in RD cells assessed as inhibition of viral replication incubated for 24 hrs by CCK-8 assay; assay type: functional, organism-based
[15] = Stability in human plasma assessed as compound remaining measured after 15 mins by LC-MS/MS analysis; assay type: ADME, cell-free; settings: read-out: Stability
[16] = target: T1, von Hippel-Lindau disease tumor suppressor/Polymerase acidic protein (Influenza A virus (A/Puerto Rico/8/1934(H1N1))); test: PROTAC activity at Influenza A virus A/WSN/33(H1N1) flag tagged Polymerase acidic protein/VHL (unknown origin) expressed in HEK293T cells assessed as degradation of PA expression at 10 uM incubated for 72 hrs by Western blotting analysis; assay type: cell-based
[17] = system: Influenza A virus; test: Anti-influenza activity against Influenza A virus A/WSN/33(H1N1) infected in HEK293T cells assessed as reduction in virus-induced cytopathic effect incubated for 48 hrs by CCK-8 assay; assay type: functional, organism-based; settings: HEK-293T
[18] = Stability in human plasma assessed as compound remaining measured after 5 mins by LC-MS/MS analysis; assay type: ADME, cell-free; settings: read-out: Stability
[19] = system: Influenza A virus; test: Anti-influenza activity against Influenza A virus A/PR/8/34 (H1N1) infected in MDCK cells assessed as inhibition of viral growth at 1 uM incubated for 48 hrs by luciferase assay relative to control; assay type: functional
[20] = Half life in dog liver microsomes preincubated for 5 mins followed by NADPH addition and measured for 45 mins by LC-MS analysis; assay type: ADME, Canis lupus familiaris, Microsome; settings: time 50 min
[21] = target: T2, von Hippel-Lindau disease tumor suppressor/Polymerase basic protein 1 (Influenza A virus (strain A/Puerto Rico/8/1934 H1N1)); test: PROTAC activity at Influenza A virus A/WSN/33(H1N1) flag tagged Polymerase basic protein 1/VHL (unknown origin) expressed in HEK293T cells assessed as degradation of PB1 expression at 1 ug/ml incubated for 24 hrs by Western blotting analysis; assay type: cell-based; settings: dose 1.0 µg/ml
[22] = target: T1, von Hippel-Lindau disease tumor suppressor/Polymerase acidic protein (Influenza A virus (A/Puerto Rico/8/1934(H1N1))); test: PROTAC activity at Influenza A virus A/WSN/33(H1N1) flag tagged Polymerase acidic protein/VHL (unknown origin) expressed in HEK293T cells assessed as degradation of PA expression at 5 uM incubated for 24 hrs in presence of bortezomib by Western blotting analysis; assay type: cell-based
[23] = target: Voltage-gated inwardly rectifying potassium channel KCNH2 (Homo sapiens, UniProt Q12809); test: Inhibition of hERG; assay type: toxicity
Chain of Voltage-gated inwardly rectifying potassium channel KCNH2 (Q12809 whole entry): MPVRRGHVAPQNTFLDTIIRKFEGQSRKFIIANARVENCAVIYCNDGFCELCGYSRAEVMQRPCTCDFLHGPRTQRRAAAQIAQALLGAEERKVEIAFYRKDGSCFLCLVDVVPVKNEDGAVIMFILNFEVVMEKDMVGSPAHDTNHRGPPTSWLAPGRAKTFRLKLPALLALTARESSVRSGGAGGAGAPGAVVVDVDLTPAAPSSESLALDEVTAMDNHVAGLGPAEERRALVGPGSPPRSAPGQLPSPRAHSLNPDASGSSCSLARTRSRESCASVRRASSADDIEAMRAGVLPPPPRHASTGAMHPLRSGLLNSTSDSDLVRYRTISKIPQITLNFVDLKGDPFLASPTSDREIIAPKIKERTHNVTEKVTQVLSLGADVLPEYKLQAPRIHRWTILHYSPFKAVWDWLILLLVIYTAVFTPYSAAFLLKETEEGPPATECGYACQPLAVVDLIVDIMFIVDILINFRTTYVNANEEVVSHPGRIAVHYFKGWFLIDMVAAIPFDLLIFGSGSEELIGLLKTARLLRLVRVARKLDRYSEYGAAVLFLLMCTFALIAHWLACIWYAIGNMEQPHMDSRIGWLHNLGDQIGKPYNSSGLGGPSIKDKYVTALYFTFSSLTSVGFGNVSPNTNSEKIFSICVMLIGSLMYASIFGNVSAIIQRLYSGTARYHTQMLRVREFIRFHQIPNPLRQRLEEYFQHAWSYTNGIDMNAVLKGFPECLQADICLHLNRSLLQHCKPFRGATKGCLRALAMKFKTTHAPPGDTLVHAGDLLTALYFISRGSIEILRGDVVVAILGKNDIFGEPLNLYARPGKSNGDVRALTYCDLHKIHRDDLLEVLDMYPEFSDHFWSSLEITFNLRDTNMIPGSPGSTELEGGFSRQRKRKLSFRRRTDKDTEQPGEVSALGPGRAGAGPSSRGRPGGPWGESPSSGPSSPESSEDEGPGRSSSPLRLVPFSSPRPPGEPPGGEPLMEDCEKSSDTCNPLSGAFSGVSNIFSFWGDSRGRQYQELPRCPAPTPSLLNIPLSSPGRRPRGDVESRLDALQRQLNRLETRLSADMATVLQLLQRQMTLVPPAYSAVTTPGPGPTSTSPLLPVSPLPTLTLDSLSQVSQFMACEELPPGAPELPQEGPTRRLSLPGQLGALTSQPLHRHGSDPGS

[24] = Hepatic clearance in mouse liver microsomes preincubated for 5 mins followed by NADPH addition and measured for 45 mins by LC-MS analysis; assay type: ADME, Microsome; settings: time 50 min
[25] = target: T1, von Hippel-Lindau disease tumor suppressor/Polymerase acidic protein (Influenza A virus (A/Puerto Rico/8/1934(H1N1))); test: PROTAC activity at Influenza A virus A/WSN/33(H1N1) flag tagged Polymerase acidic protein/VHL (unknown origin) expressed in HEK293T cells assessed as degradation of PA expression at 10 uM incubated for 24 to 48 hrs by Western blotting analysis; assay type: cell-based; settings: time 24-48 hrs
[26] = target: T1, von Hippel-Lindau disease tumor suppressor/Polymerase acidic protein (Influenza A virus (A/Puerto Rico/8/1934(H1N1))); test: PROTAC activity at Influenza A virus A/WSN/33(H1N1) flag tagged Polymerase acidic protein/VHL (unknown origin) expressed in HEK293T cells assessed as degradation of PA expression at 0.02 to 10 uM incubated for 24 hrs by Western blotting analysis; assay type: cell-based; settings: dose 0.02-10 µM
[27] = system: Influenza A virus; test: Anti-influenza activity against Influenza A virus A/WSN/33(H1N1) infected in MDCK cells assessed as downregulation of nucleoprotein expression incubated for 24 hrs by Western blotting analysis; assay type: functional, organism-based
[28] = Hepatic extraction ratio in mouse liver microsomes preincubated for 5 mins followed by NADPH addition and measured for 45 mins by LC-MS analysis; assay type: ADME, Microsome; settings: time 50 min, read-out: ERH
[29] = system: Influenza B virus; test: Anti-influenza activity against Influenza B virus Victoria/2/87 infected in HEK293T cells assessed as reduction in virus-induced cytopathic effect incubated for 48 hrs by CCK-8 assay; assay type: functional, organism-based; settings: Victoria/2/87, HEK-293T
[30] = Intrinsic clearance in mouse liver microsomes preincubated for 5 mins followed by NADPH addition and measured for 45 mins by LC-MS analysis; assay type: ADME, Microsome; settings: time 50 min, read-out: CLH
[31] = target: von Hippel-Lindau disease tumor suppressor/Polymerase acidic protein (Influenza A virus (A/Puerto Rico/8/1934(H1N1)), UniProt P03433+P40337); test: PROTAC activity at Influenza A virus A/WSN/33(H1N1) flag tagged Polymerase acidic protein/VHL (unknown origin) expressed in HEK293T cells assessed as degradation of PA expression incubated for 24 hrs by Western blotting analysis; assay type: cell-based

With `CC(C)(C)OC(=O)NCCCC[C@H](NC(=O)OC(C)(C)C)C(=O)NCCCCCCCC(=O)Nc1ccc(NC(=S)NC(=O)c2ccc(C(C)(C)C)cc2)cc1` the Activity [1] was “Active”, the CC50 at 48 h [2] was > 100000 nM and the Activity [3] was “inactive”. The Activity [4] was “inactive”, the half-life [5] was 32.1 min and the Activity [6] was “Active”. The Activity [7] was “inactive”, the EC50 [8] was 73 nM and the half-life [9] was 246 min. The Activity [10] was “Active”, the Activity [11] was “Active” and the half-life [12] was 12.7 min. For the same compound, the Activity [13] was 35%, the Activity [14] was “Active” and the remaining at 0.25 h [15] was 109%. The Activity [16] was “Active”, the EC50 [17] was 15 nM and the remaining at 5 min [18] was 96.8%. The inhibition at 1 µM [19] was 96%, the half-life [20] was 19.6 min and the Activity [21] was “inactive”. For the same compound, the Activity [22] was “inactive”, the “inhibition (INH)” value [23] was “Not Active” and the CLhep predicted [24] was 58.8 mL/min/kg. The Activity [25] was “Active”, the Activity [26] was “Active” and the Activity [27] was “Dose-Dependent Effect”. It also gave a hepatic extraction ratio at 0.75 h [28] of 0.654, an EC50 [29] of 67 nM and a CLint scaled [30] of 170 mL/min/kg. For the same compound, the DC50 [31] was 60 nM.
